Measured values as given in ChEMBL document CHEMBL1949543, “Synthesis and evaluation of novel monosubstituted sulfonylurea derivatives as antituberculosis agents” (Eur J Med Chem, 2012).
In brackets after ≈: the same amount, converted by molar mass.

Assays:
[1] = Selectivity ratio of IC50 for human THP1 cells to MIC for isoniazid-, rifampin-, amikacin-, OLF-resistant Mycobacterium tuberculosis isolate J; format: functional, THP-1
[2] = Selectivity ratio of IC50 for human THP1 cells to MIC for isoniazid-, rifampin-resistant Mycobacterium tuberculosis isolate D; format: functional, THP-1
[3] = Selectivity ratio of IC50 for human THP1 cells to MIC for isoniazid-, rifampin-,streptomycin-resistant Mycobacterium tuberculosis isolate E; format: functional, THP-1
[4] = system: Mycobacterium tuberculosis; experiment: Antituberculosis activity against isoniazid-resistant Mycobacterium tuberculosis isolate B; format: functional
[5] = system: Mycobacterium tuberculosis; experiment: Antituberculosis activity against isoniazid-resistant Mycobacterium tuberculosis isolate C; format: functional
[6] = system: Mycobacterium tuberculosis; experiment: Antituberculosis activity against isoniazid-, rifampin-resistant Mycobacterium tuberculosis isolate D; format: functional
[7] = system: Mycobacterium tuberculosis; experiment: Antituberculosis activity against isoniazid-, rifampin-,streptomycin-resistant Mycobacterium tuberculosis isolate E; format: functional
[8] = system: Mycobacterium tuberculosis; experiment: Antituberculosis activity against isoniazid-, rifampin-,ethambutol-resistant Mycobacterium tuberculosis isolate F; format: functional
[9] = system: Mycobacterium tuberculosis; experiment: Antituberculosis activity against isoniazid-, rifampin-,ethambutol-resistant Mycobacterium tuberculosis isolate G; format: functional
[10] = system: Mycobacterium tuberculosis; experiment: Antituberculosis activity against isoniazid-, rifampin-, amikacin-, OLF-resistant Mycobacterium tuberculosis isolate H; format: functional
[11] = system: Mycobacterium tuberculosis; experiment: Antituberculosis activity against isoniazid-, rifampin-,kanamycin-,OLF-resistant Mycobacterium tuberculosis isolate I; format: functional
[12] = system: Mycobacterium tuberculosis; experiment: Antituberculosis activity against isoniazid-, rifampin-, amikacin-, OLF-resistant Mycobacterium tuberculosis isolate J; format: functional
[13] = Selectivity ratio of IC50 for human THP1 cells to MIC for INH-resistant Mycobacterium tuberculosis isolate B; format: functional, THP-1
[14] = Selectivity ratio of IC50 for human THP1 cells to MIC for INH-resistant Mycobacterium tuberculosis isolate C; format: functional, THP-1
[15] = Selectivity ratio of IC50 for human THP1 cells to MIC for isoniazid-, rifampin-,ethambutol-resistant Mycobacterium tuberculosis isolate F; format: functional, THP-1
[16] = Selectivity ratio of IC50 for human THP1 cells to MIC for isoniazid-, rifampin-,ethambutol-resistant Mycobacterium tuberculosis isolate G; format: functional, THP-1
[17] = Selectivity ratio of IC50 for human THP1 cells to MIC for isoniazid-, rifampin-, amikacin-, OLF-resistant Mycobacterium tuberculosis isolate H; format: functional, THP-1
[18] = Selectivity ratio of IC50 for human THP1 cells to MIC for isoniazid-, rifampin-,kanamycin-,OLF-resistant Mycobacterium tuberculosis isolate I; format: functional, THP-1

Structure (SMILES) | Selectivity ratio [1] | Selectivity ratio [2] | Selectivity ratio [3] | MIC [4] | MIC [5] | MIC [6] | MIC [7] | MIC [8] | MIC [9] | MIC [10] | MIC [11] | MIC [12] | Selectivity ratio [13] | Selectivity ratio [14] | Selectivity ratio [15] | Selectivity ratio [16] | Selectivity ratio [17] | Selectivity ratio [18]
Cc1ccnc(NC(=O)NS(=O)(=O)c2cc(NC(=O)CCl)ccc2Cl)n1 | 10 | 10 | 10 | 10 µg/mL (≈ 23.9 µM) | 10 µg/mL (≈ 23.9 µM) | 10 µg/mL (≈ 23.9 µM) | 10 µg/mL (≈ 23.9 µM) | 10 µg/mL (≈ 23.9 µM) | 10 µg/mL (≈ 23.9 µM) | 10 µg/mL (≈ 23.9 µM) | 10 µg/mL (≈ 23.9 µM) | 10 µg/mL (≈ 23.9 µM) | 10 | 10 | 10 | 10 | 10 | 10
COc1ccnc(NC(=O)NS(=O)(=O)c2cc(NC(=O)CCl)ccc2Cl)n1 | 10 | 10 | 10 | 10 µg/mL (≈ 23 µM) | 10 µg/mL (≈ 23 µM) | 10 µg/mL (≈ 23 µM) | 10 µg/mL (≈ 23 µM) | 10 µg/mL (≈ 23 µM) | 10 µg/mL (≈ 23 µM) | 10 µg/mL (≈ 23 µM) | 10 µg/mL (≈ 23 µM) | 10 µg/mL (≈ 23 µM) | 10 | 10 | 10 | 10 | 10 | 10
